Values of other authors as cited in patent publication US20240050950A1, “GRADIENT-BASED MICROFLUIDIC CIRCUIT, DEVICE, AND METHOD FOR PERFORMING AN ASSAY” (priority 2020, published 2024).
Numbered stars: 1 amine (or outer) side, 2 acyl side, 3 side chain; on linkers, the order of the positions; unused ones are H or OH. Bridge positions count the residues as written; N and C are the ends. Square brackets hold non-standard residues; d marks the D form. Peptide text beside a SMILES is read from it. I, II: the chains in the order shown. Actinocin(9to1) = Cc1c2oc3c(C)ccc(C(=O)[*:1])c3nc-2c(C(=O)[*:2])c(N)c1=O; NMeV = CN[C@H](C(=O)O)C(C)C; Sar = CNCC(=O)O

Details: Table 1, antimicrobial agents/drugs; cited from earlier work

First: 4-Hydroxytamoxifen [4-Hydroxytamoxifen ((Z)-Afimoxifene)]
Second: OC[C@H]1NC[C@@H](O)[C@@H](O)[C@@H]1O [1-Deoxymannojirimycin]
The Molar volume of the first is higher: 354.6 ± 3.0 cm^3 for the first, 112.0 ± 3.0 cm^3 for the second.

Going from `Cc1c2oc3c(C)c(N)cc(C(=O)N[C@@H]4C(=O)N[C@H](C(C)C)C(=O)N5CCC[C@H]5C(=O)N(C)CC(=O)N(C)[C@@H](C(C)C)C(=O)O[C@@H]4C)c3nc-2c(C(=O)N[C@@H]2C(=O)N[C@H](C(C)C)C(=O)N3CCC[C@H]3C(=O)N(C)CC(=O)N(C)[C@@H](C(C)C)C(=O)O[C@@H]2C)c(N)c1=O` [7-Aminoactinomycin D (7-ADD), 7-Aminoactinomycin D] to `CC(=O)OCC1=C(C(=O)O)N2C(=O)[C@@H](N)[C@H]2SC1` [7-Aminocephalosporanic acid (7-ACA), 7-Aminocephalosporanic acid], the Molar volume falls from 877.3 ± 7.0 cm^3 to 170.0 ± 5.0 cm^3.

First: CC1=C(C(=O)O)N2C(=O)[C@@H](N)[C@H]2SC1 [7-Aminodesacetoxycephalosporanic acid]
Second: CC(=O)O[C@@]12CO[C@@H]1C[C@H](O)[C@@]1(C)C(=O)[C@H](O)C3=C(C)[C@@H](O)C[C@@](O)([C@@H](OC(=O)c4ccccc4)[C@H]21)C3(C)C [10-Deacetylbaccatin III]
The Molar volume of the first is lower: 134.0 ± 5.0 cm^3 for the first, 385.5 ± 5.0 cm^3 for the second.

Compared with `C=CCNC1=C2C[C@@H](C)C[C@H](OC)[C@H](O)[C@@H](C)/C=C(\C)[C@H](OC(N)=O)[C@@H](OC)/C=C\C=C(/C)C(=O)NC(=CC1=O)C2=O` [17-(Allylamino)-17-demethoxygeldanamycin], `CC1(C)S[C@@H]2[C@H](N)C(=O)N2[C@H]1C(=O)O` [(+)-6-Aminopenicillanic acid (6-APA), (+)-6-Aminopenicillanic acid] is lower in Molar volume: 483.3 ± 5.0 cm^3 for the first, 142.0 ± 5.0 cm^3 for the second.

Going from `CC[C@@]1(O)C(=O)OCc2c1cc1n(c2=O)Cc2cc3ccccc3nc2-1` [(S)-(+)-Camptothecin (Camptothecin), (S)-(+)-Camptothecin] to `Cc1c2oc3c(C)ccc(C(=O)N[C@@H]4C(=O)N[C@H](C(C)C)C(=O)N5CCC[C@H]5C(=O)N(C)CC(=O)N(C)[C@@H](C(C)C)C(=O)O[C@@H]4C)c3nc-2c(C(=O)N[C@@H]2C(=O)N[C@H](C(C)C)C(=O)N3CCC[C@H]3C(=O)N(C)CC(=O)N(C)[C@@H](C(C)C)C(=O)O[C@@H]2C)c(N)c1=O` [Actinomycin D] (I: T[dV]P[Sar][NMeV] / II: T[dV]P[Sar][NMeV]; ester I:1-I:C, II:1-II:C; linker I:N-II:N via Actinocin(9to1)), the Molar volume rises from 230.2 ± 5.0 cm^3 to 880.6 ± 7.0 cm^3.

Going from `CCCCC[C@H](CC(=O)NO)C(=O)N[C@H](C(=O)N1CCC[C@H]1CO)C(C)C` [Actinonin] to `Nc1ncnc2c1ncn2[C@@H]1O[C@H](CO)[C@@H](O)[C@@H]1O` [Adenine 9-β-D-arabinofuranoside], the Molar volume falls from 338.1 ± 3.0 cm^3 to 128.1 ± 7.0 cm^3.

Same assay, conditions: Table 2, anticancer drugs; cited from earlier work

First: CC(=O)O[C@H]1CC[C@@]2(C)C(=CC[C@@H]3[C@@H]2CC[C@]2(C)C(c4cccnc4)=CC[C@@H]32)C1 [Abiraterone acetate (Zytiga), Abiraterone acetate]
Second: CO[C@H]1C[C@@H]2CC[C@@H](C)[C@@](O)(O2)C(=O)C(=O)N2CCCC[C@H]2C(=O)O[C@H]([C@H](C)C[C@@H]2CC[C@@H](OCCO)[C@H](OC)C2)CC(=O)[C@H](C)/C=C(\C)[C@@H](O)[C@@H](OC)C(=O)[C@H](C)C[C@H](C)/C=C/C=C/C=C/1C [Afinitor (Everolimus), Everolimus]
The Molar volume of the first is lower: 343.0 ± 5.0 cm^3 for the first, 811.2 ± 5.0 cm^3 for the second.

For `Cc1c2oc3c(C)ccc(C(=O)N[C@@H]4C(=O)N[C@H](C(C)C)C(=O)N5CCC[C@H]5C(=O)N(C)CC(=O)N(C)[C@@H](C(C)C)C(=O)O[C@@H]4C)c3nc-2c(C(=O)N[C@@H]2C(=O)N[C@H](C(C)C)C(=O)N3CCC[C@H]3C(=O)N(C)CC(=O)N(C)[C@@H](C(C)C)C(=O)O[C@@H]2C)c(N)c1=O` [Actinomycin D] (I: T[dV]P[Sar][NMeV] / II: T[dV]P[Sar][NMeV]; ester I:1-I:C, II:1-II:C; linker I:N-II:N via Actinocin(9to1)), the Molar volume is given as 880.6 ± 7.0 cm^3.

Same assay, conditions: Table 3, antifungal drugs and other molecules; cited from earlier work

Going from `c1ccc2[nH]c(-c3cscn3)nc2c1` [2-(4-Thiazolyl)benzimidazole] to `C=CCc1ccc(O)c(-c2cc(CC=C)ccc2O)c1` [5,5′-Diallyl-2,2′-biphenyldiol], the Molar volume rises from 143.0 ± 3.0 cm^3 to 240.4 ± 3.0 cm^3.

In the case of `O=[N+]([O-])C1(Br)COCOC1` [5-Bromo-5-nitro-1,3-dioxane], the Molar volume is given as 115.3 ± 5.0 cm^3.
